Where two headings read alike, the source gives them in different places.
Columns and labels:
[1] = Caco-2 bidirectional permeability test; settings: human, Caco-2
Method: The purpose of this experiment is to test the bidirectional permeability of the compound through the Caco-2 cell model and evaluate whether the compound is transported by efflux transporters.
Liquid chromatography-mass spectrometer, centrifuge, vortexer, pipette, 96-well test plate (HTS Transwell Plate), acetonitrile solution containing internal standard, Caco-2 cells (ATCC), Hank's balance solution (HBSS), fluorescent yellow (LY), dimethyl sulfoxide (DMSO).
108 μL of transport buffer (HBSS containing 10 μM of the example compound) was added to the administration end of A to B. • b. 300 μL of transport buffer (HBSS containing DMSO) was added to the receiving end of A to B. • c. 300 μL of transport buffer (HBSS containing 10 μM example compound) was added to the administration end of A to B. • d. 108 μL of transport buffer (HBSS containing DMSO) was added to the receiving end of A to B. • e. incubation was performed for 90 min. • d. a sample was taken, processed and detected with mass spectrometry.
• Instruments: Liquid Chromatography; • Chromatographic column: Waters XSelect HSS T3 2.5 μm (2.1×50 mm); • Mobile phase: Phase A: 0.1% formic acid in pure water; Phase B: 0.1% formic acid in acetonitrile.
• Instruments: AP16500+liquid chromatography-mass spectrometer; • The ion source is electrospray ionization source (ESI); • The detection method is positive ion detection;
The scanning method is selected reaction monitoring (MRM).

[2] = target: MALT1 protease activity in TMD8 cells (substrate BCL-10) (Homo sapiens (Human), UniProt Q9UDY8); experiment: Intracellular MALT1 protease activity detection (BCL-10 ELISA in TMD8 cells); assay type: cell-based; settings: undigested BCL-10 by ELISA, 30 min compound then 2 h stimulation cocktail, read-out: Bcl10 TMD8 IC50
Method: By detecting the digestion level of the substrate BCL-10 by MALT1 in TMD8 cells, the inhibitory effect of the compound on MALT1 protease activity in the cellular environment was tested.
The ELISA sandwich method was used to detect the content of undigested BCL-10 protein in cells and determine the inhibitory effect of compounds on intracellular MALT1 protease activity. The highest concentration of the compound detected was 10000 nM, 3-fold dilution, a total of 9 concentrations (10000 nM-1.5 nM). Cells were plated at an appropriate density. Compounds of corresponding concentrations were first added for action for 30 min, and then eBioscience cell stimulation cocktail was added to stimulate the cells for 2 h. Cell lysate was then collected. The cell lysate was added to the assay plate previously coated with recombinant BCL-10 antibody (Abcam, #Ab33905) and incubated at 4° C. overnight. The next day, BCL-10 detection antibody (Santacruz, #Sc-5273HRP) was added and incubated for 2 h, TMB substrate was used for color development for about 30 min, then the color development was terminated, and a microplate reader was used for detection.
2) Curve fitting: Log(inhibitor) vs. response—Variable slope (four parameters) in GraphPad Prism 6 was used to perform fitting equation analysis on compound concentration and corresponding inhibition rate, the curve was fit and compound IC50 value was obtained.
(§1) The fitting calculation equation is Y=Bottom+(Top−Bottom)/(1+10^((Log IC50−X)*HillSlope))

[3] = Pharmacokinetics of oral administration in Balb/C mice; assay type: in vivo; set-up: Cmax: unit: ng/mL; settings: 30 mg/kg, P.O., plasma
Method: Balb/C mice were used as test animals to study the pharmacokinetic behavior of the compound in the plasma of mice after oral administration at a dose of 30 mg/kg.
3 Balb/C mice (3/example), male, from Shanghai Jiesijie Experimental Animal Co., Ltd., animal production license number (SCXK (Shanghai) 2013-0006 N0.311620400001794).
3 Balb/C mice, male; p.o. respectively at a dose of 30 mg/kg and an administration volume of 10 mL/kg after the mice were fasted overnight.
Before and after administration of mice, 0.1 mL of blood was collected from the orbit at 0, 0.5, 1, 2, 4, 6, 8 and 24 h, and placed in EDTA-K2 test tubes, which was centrifuged at 6000 rpm at 4° C. for 6 min to separate plasma which was stored at −80° C.
• 1) 160 μL of acetonitrile was added to 40 μL of plasma sample for precipitation, and same was mixed and centrifuged at 3500×g for 5 to 20 min. • 2) 100 μL of the treated supernatant solution was taken and subjected to LC/MS/MS to analyze the concentrations of the test compounds.
• Liquid phase conditions: Shimadzu LC-20AD pump • Mass spectrometry conditions: AB Sciex API 4000 mass spectrometer • Chromatographic column: Phenomenex Gemiu 5 um C18 50×4.6 mm • Mobile phase: liquid A is 0.1% aqueous formic acid solution, liquid B is acetonitrile • flow rate: 0.8 mL/min • Elution time: 0-4.0 min, the eluent is as follows:
The main pharmacokinetic parameters were calculated using WinNonlin 8.2.

[4] = target: Recombinant human MALT1/MLT protein (Homo sapiens (Human), UniProt Q9UDY8); experiment: Inhibitory effect on MALT1 enzyme activity (Ac-LRSR-AMC substrate, fluorescence 460 nm); assay type: biochemical; settings: 10 nM FL MALT1, Ac-LRSR-AMC substrate, 50 min pre-incubation, 4 h reaction
Recombinant human MALT1/MLT protein, sequence (Q9UDY8 whole entry): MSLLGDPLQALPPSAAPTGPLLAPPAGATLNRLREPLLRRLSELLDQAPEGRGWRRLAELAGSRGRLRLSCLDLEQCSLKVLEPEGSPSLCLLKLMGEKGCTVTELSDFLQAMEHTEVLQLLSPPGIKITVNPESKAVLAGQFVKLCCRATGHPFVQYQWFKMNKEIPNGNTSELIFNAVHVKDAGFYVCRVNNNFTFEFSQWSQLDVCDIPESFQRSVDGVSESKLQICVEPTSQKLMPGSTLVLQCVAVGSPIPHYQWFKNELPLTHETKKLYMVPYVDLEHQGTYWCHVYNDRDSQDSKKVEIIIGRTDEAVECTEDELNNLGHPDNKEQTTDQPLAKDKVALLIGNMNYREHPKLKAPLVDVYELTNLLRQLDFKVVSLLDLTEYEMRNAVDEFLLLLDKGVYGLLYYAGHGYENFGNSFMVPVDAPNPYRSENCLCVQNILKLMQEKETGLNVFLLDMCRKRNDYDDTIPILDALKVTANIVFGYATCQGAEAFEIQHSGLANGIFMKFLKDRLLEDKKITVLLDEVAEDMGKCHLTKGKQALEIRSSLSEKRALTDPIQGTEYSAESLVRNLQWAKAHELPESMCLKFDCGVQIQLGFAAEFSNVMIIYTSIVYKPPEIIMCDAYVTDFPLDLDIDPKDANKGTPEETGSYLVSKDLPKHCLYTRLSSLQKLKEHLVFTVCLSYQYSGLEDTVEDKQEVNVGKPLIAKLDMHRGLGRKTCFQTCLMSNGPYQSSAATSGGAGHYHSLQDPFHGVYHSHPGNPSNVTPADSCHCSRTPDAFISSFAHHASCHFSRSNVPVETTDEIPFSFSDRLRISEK
Method: Ac-LRSR-AMC was used as the substrate to test the IC50 of the inhibitory activity of compounds on MALT1 enzyme activity at their Km concentration.
Ac-LRSR-AMC was used as the substrate which was digested by MALT1 to produce products, which produced fluorescence that could be detected at 460 nm. The highest concentration of the compound detected was 1000 nM, 3-fold dilution, a total of 11 concentrations (1000 nM-0.017 nM). The reaction system is 10 nM FL MALT1 protein, […] Ac-LRSR-AMC, 50 mM Tris pH 7.5, 0.6M Citrate, 1 mM DTT, 1 mM EDTA, 0.05% BSA and 1.5% DMSO. The compound and the enzyme were pre-incubated at room temperature for 50 min. The substrate was then added and the reaction was carried out for 4 h.
The original data (460 nm reading) was calculated according to the following formula to obtain the inhibition rate.
(§2) Log(inhibitor) vs. response—Variable slope (four parameters) in GraphPad Prism 6 was used to perform fitting equation analysis on compound concentration and corresponding inhibition rate, the curve was fit and compound IC50 value was obtained.
as §1

[5] = tested on: OCI-Ly3 cells; experiment: Inhibition of proliferation of OCI-Ly3 cells (CellTiter-Glo); assay type: cell-based, human; settings: 96 h incubation, read-out: Inhibition test of proliferation of OCI-Ly3 cells IC50
Method: The compound's inhibitory effect on the proliferation of TMD8 and OCI-Ly3 cells was evaluated through cell proliferation inhibition experiments.
The compound's inhibitory effect on the proliferation of TMD8 and OCI-Ly3 cells was detected by the CellTiter-Glo method. The highest concentration of the compound detected was 1000 nM, 3-fold dilution, a total of 9 concentrations (1000 nM-0.15 nM). After the cells were plated at an appropriate density, compounds were added the next day and incubated for 96 h before detection using the CellTiter-Glo Luminescent detection kit.
as §2, §1

[6] = male, mouse, po, read-out: AUC 0-t
[7] = male, mouse, po, read-out: Cmax
[8] = male, mouse, po, read-out: Tmax

MALT1 protease activity in TMD8 cells (substrate BCL-10), sequence (Q9UDY8 whole entry): as above

Structure (SMILES)	IC50 [2] [nM]	AUC(0-inf) ([3]; male, mouse, po) [ng·h/mL]	half-life ([3]; male, mouse, po) [h]	AUC(0-t) [3, 6] [ng·h/mL]	Cmax [3, 7] [ng/mL]	MRT ([3]; male, mouse, po, read-out: MRT) [h]	Tmax [3, 8] [h]	IC50 [4] [nM]	IC50 ([5]; Homo sapiens) [nM]	also measured
O=C(Nc1cnc(-n2nccn2)c(Cl)c1)c1cnn(-c2ccc3c4c(cccc24)C(=O)N3)c1C(F)(F)F [Example 5, N-(6-(2H-1,2,3-triazol-2-yl)-5-chloropyridin-3-yl)-1-(2-oxo-1,2-dihydrobenzo[cd]indol-6-yl)-5-trifluoromethyl-1H-pyrazole-4-carboxamide]	36	64100	2.1	64100	7180	5.2	2	15	120	Papp A→B at 90 min, 10 µM [1]: 1 ×10⁻⁶ cm/s; Papp B→A at 90 min, 10 µM [1]: 7.03 ×10⁻⁶ cm/s; efflux ratio at 90 min, 10 µM [1]: 7.09
O=C(Nc1cnc(-n2nccn2)c(Cl)c1)c1cnn(-c2ccc3c4c(cccc24)C(=O)N3)c1C1CC1 [Example 60, N-(5-chloro-6-(2H-1,2,3-triazol-2-yl)-pyridin-3-yl)-5-cyclopropyl-1-(2-oxo-1,2-dihydrobenzo[cd]indol-6-yl)-1H-pyrazole-4-carboxamide]	57	–	–	–	–	–	–	16	132	–
Cc1ncn(-c2ncc(NC(=O)c3cnn(-c4ccc5c6c(cccc46)C(=O)N5)c3C(F)(F)F)cc2Cl)n1 [Example 46]	80	–	–	–	–	–	–	93	–	IC50 [5]: 222 nM
O=C(Nc1cnc(-n2nccn2)c(C(F)(F)F)c1)c1cnn(-c2ccc3c4c(cccc24)C(=O)N3)c1C1CC1 [Example 56, N-(6-(2H-1,2,3-triazol-2-yl)-5-(trifluoromethyl)pyridin-3-yl)-5-cyclopropyl-1-(2-oxo-1,2-dihydrobenzo[cd]indol-6-yl)-1H-pyrazole-4-carboxamide]	93	–	–	–	–	–	–	31	152	–
O=C(Nc1cnc(-n2nccn2)c(C(F)(F)F)c1)c1cnn(-c2cnc3c4c(cccc24)C(=O)N3)c1C(F)(F)F [Example 68]	72	–	–	–	–	–	–	51	–	AUC0-∞ [3]: 10,388 ng/mL*hr; AUC(0-t) [3]: 10,168 ng/mL*h; Cmax [3]: 2,670 ng/mL; MRT [3]: 2.6 h; T1/2 [3]: 1.2 h; Tmax [3]: 0.5 h; IC50 [5]: 271 nM
O=C(Nc1cnc(-n2nccn2)c(C(F)F)c1)c1cnn(-c2ccc3c4c(cccc24)C(=O)N3)c1C(F)(F)F [Example 49, N-(5-difluoromethyl-6-(2H-1,2,3-triazol-2-yl)-pyridin-3-yl)-1-(2-oxo-1,2-dihydrobenzo[cd]indol-6-yl)-5-trifluoromethyl-1H-pyrazole-4-carboxamide]	73	105000	2.1	105000	15300	4.3	2	28	97	–
O=C(Nc1cc(Cl)n2ncc(Cl)c2c1)c1cnn(-c2ccc3c4c(cccc24)C(=O)N3)c1C(F)(F)F [Example 13, N-(3,7-dichloropyrazolo[1,5-a]pyridin-5-yl)-1-(2-oxo-1,2-dihydrobenzo[cd]indol-6-yl)-5-trifluoromethyl-1H-pyrazole-4-carboxamide]	–	67800	6.2	62700	4380	9.4	4	107	272	Papp A→B at 90 min, 10 µM [1]: 7.63 ×10⁻⁶ cm/s; Papp B→A at 90 min, 10 µM [1]: 19.1 ×10⁻⁶ cm/s; efflux ratio at 90 min, 10 µM [1]: 2.5
O=C(Nc1ccc(-n2nccn2)c(Cl)c1)c1cnn(-c2ccc3c4c(cccc24)C(=O)N3)c1C1CC1 [Example 63, N-(3-chloro-4-(2H-1,2,3-triazol-2-yl)phenyl)-5-cyclopropyl-1-(2-oxo-1,2-dihydrobenzo[cd]indol-6-yl)-1H-pyrazole-4-carboxamide]	58	–	–	–	–	–	–	28	154	–

Reference: patent US20250059196A1 (SHANGHAI HANSOH BIOMEDICAL CO., LTD., priority 2021, published 2025)
